Reference: patent US20080227768A1, “Crystal of 1-Methylcarbapenem Compound” (priority 2005, published 2008)
Like-named read-outs stand apart in the source and are kept apart here.

Legend:
[1] = Storage Stability Test-1 (sealed brown glass bottle, 25° C., purity by HPLC); assay type: physicochemical; conditions: HPLC peak area ratio
Experimental: The crystalline form of the present invention obtained according to Example 2 and a crystalline form described in Japanese Patent Application Publication (Kokai) No. 2001-72681 ((1R,5S,6S)-6-[(1R)-1-hydroxyethyl]-1-methyl-2-[(2S,4S)-2-[(3S)-3-(2-guanidinoacetylamino)pyrrolidin-1-ylcarbonyl]-1-methylpyrrolidin-4-ylthio]-1-carbepen-2-em-3-carboxylic acid·monoethanolate·trihydrate, referred to as Crystalline form 1) were sealed in a brown glass bottle at a constant temperature of 25° C. followed by measurement of purity at the start of the test, one month later and two months later using high performance liquid chromatography (column: Develosil RPAQUEOUS 4.6×150 mm, column temperature: 60° C., developer flow rate: 1.0 ml/min, developer: 0.02 M aqueous potassium dihydrogen phosphate solution/acetonitrile=95/5 to 50/50). The resulting purities were represented as the ratios of the areas of the chromatographic peaks.

[2] = Storage Stability Test-2 (sealed brown glass bottle, 40° C., purity by HPLC); assay type: physicochemical; conditions: HPLC peak area ratio
Experimental: The crystalline form of the present invention obtained according to Example 2 and Crystalline form 1 were sealed in a brown glass bottle at a constant temperature of 40° C. followed by measurement of purity at the start of the test and one month later using high performance liquid chromatography (column: Develosil RPAQUEOUS 4.6×150 mm, column temperature: 60° C., developer flow rate: 1.0 ml/min, developer: 0.02 M aqueous potassium dihydrogen phosphate solution/acetonitrile=95/5 to 50/50). The resulting purities were represented as the ratios of the areas of the chromatographic peaks.

[3] = Water Solubility Test (time to completely dissolve); assay type: physicochemical; conditions: for Dissolving time: 300 mg of crystals sized through 150 μm mesh, 10 ml of water, 25° C., complete dissolution
Description: The crystalline form of the present invention obtained according to Example 2 and a crystalline form described in Japanese Patent Application Publication (Kokai) No. 2001-72681 ((1R,5S,6S)-6-[(1R)-1-hydroxyethyl]-1-methyl-2-[(2S,4S)-2-[(3S)-3-(2-guanidinoacetylamino)pyrrolidin-1-ylcarbonyl]-1-methylpyrrolidin-4-ylthio]-1-carbepen-2-em-3-carboxylic acid, referred to as Crystalline form 2) were sized by passing through a 150 μm mesh filter followed by measurement of the amount of time required for 300 mg of the crystals to completely dissolve in 10 ml of water at 25° C.

[4] = system: Gram-negative bacteria and Gram-positive bacteria; conditions: cited from earlier work

Compound	Purity (%) 1 month later [1] [%]	Purity (%) 2 months later [1] [%]	Purity (%) Start of test [1] [%]	Purity 1 month later (%) [2] [%]	Purity at start of test (%) [2] [%]	Dissolving time [3] [min]	solubility in water (in words) ([3]; compared with the known crystalline form)	antibacterial activity ([4]; from Patent Documents 1 and 2, listed as formula (I))	antibacterial activity ([4]; from Patent Documents 1 and 2)
C[C@@H](O)[C@H]1C(=O)N2C(C(=O)O)=C(S[C@H]3C[C@@H](C(=O)N4CC[C@H](NC(=O)CNC(=N)N)C4)N(C)C3)[C@H](C)[C@H]12 (stereo in doubt) [Crystalline form of present invention, (1R,5S,6S)-6-[(1R)-1-Hydroxyethyl]-1-methyl-2-[(2S,4S)-2-[(3S)-3-(2-guanidinoacetylamino)pyrrolidin-1-ylcarbonyl]-1-methylpyrrolidin-4-ylthio]-1-carbapen-2-em-3-carboxylic acid acetonate]	98.43	98.40	98.35	98.35	98.35	2.5	superior to that of the known crystalline form	–	–
CCO.C[C@@H](O)[C@H]1C(=O)N2C(C(=O)O)=C(S[C@H]3C[C@@H](C(=O)N4CC[C@H](NC(=O)CNC(=N)N)C4)N(C)C3)[C@H](C)[C@H]12.O.O.O [Crystalline form 1, (1R,5S,6S)-6-[(1R)-1-hydroxyethyl]-1-methyl-2-[(2S,4S)-2-[(3S)-3-(2-guanidinoacetylamino)pyrrolidin-1-ylcarbonyl]-1-methylpyrrolidin-4-ylthio]-1-carbepen-2-em-3-carboxylic acid·monoethanolate·trihydrate, reference compound]	98.35	98.06	98.45	98.26	98.45	–	–	–	–
C[C@@H](O)[C@H]1C(=O)N2C(C(=O)O)=C(S[C@H]3C[C@@H](C(=O)N4CC[C@H](NC(=O)CNC(=N)N)C4)N(C)C3)[C@H](C)[C@H]12 [compound (I), (1R,5S,6S)-6-[(1R)-1-hydroxyethyl]-1-methyl-2-[(2S,4S)-2-[(3S)-3-(2-guanidinoacetylamino)pyrrolidin-1-ylcarbonyl]-1-methylpyrrolidin-4-ylthio]-1-carbapen-2-em-3-carboxylic acid]	–	–	–	–	–	–	–	potent antibacterial activity	excellent antibacterial activity
C[C@@H](O)[C@H]1C(=O)N2C(C(=O)O)=C(S[C@H]3C[C@@H](C(=O)N4CC[C@H](NC(=O)CNC(=N)N)C4)N(C)C3)[C@H](C)[C@H]12 [Crystalline form 2, (1R,5S,6S)-6-[(1R)-1-hydroxyethyl]-1-methyl-2-[(2S,4S)-2-[(3S)-3-(2-guanidinoacetylamino)pyrrolidin-1-ylcarbonyl]-1-methylpyrrolidin-4-ylthio]-1-carbepen-2-em-3-carboxylic acid, reference compound]	–	–	–	–	–	8.0	–	–	–
